Publication PMC12488629, “Insecticidal activity of monoamide compounds from Humulus scandens against Spodoptera frugiperda” (Frontiers in Plant Science, 2025)
≈ marks a conversion by molar mass, not a printed value.

Assays:
[1] = test system: Acetylcholinesterase (AchE); assay: AchE activity in living S. frugiperda after immersion treatment; format: in vivo, Spodoptera frugiperda; conditions: treatment at LC50 and double the LC50, immersion
Protocol: The compounds were prepared in solutions at the LC50 and double the LC50, and 4th-instar S. frugiperda larvae were treated using the immersion method. Ten larvae were treated per concentration, with five replicates, and acetone was used as the solvent control. The Acetylcholinesterase (AchE) activity was measured following the operating procedures of the AchE assay kit (Shenggong Biotech Co., Shanghai, China.).

[2] = test system: 4th instar S. frugiperda larvae; assay: Contact toxicity of compounds, immersion method; format: in vivo, Spodoptera frugiperda; conditions: for Insecticidal activity, contact toxicity (in words): 200 µg/mL; for LC50: Spodoptera frugiperda, Poisoning activity (contact toxicity, immersion), 72 hours, 4th instar larvae
Protocol: The contact toxicity of the compounds against S. frugiperda was determined via the immersion method ([Li et al., 2023]). The compounds were prepared in solutions with a concentration of 200 μg/mL using acetone as the solvent. Uniformly sized 4th instar S. frugiperda larvae were selected and immersed in the solutions for 3–4 seconds. Each treatment included 10 Petri dishes, with one larva per dish, and the experiment was repeated three times. Acetone was used as the solvent control, and a blank control was also used. The number of dead insects was recorded at 24, 48, and 72 hours, and the corrected mortality rate was calculated.
(§1) Mortality(%)=(Mortality of treatment group-Mortality of control group)/(1-Mortality of control group)×100%
The compound concentrations were prepared as 50, 100, 200, 400, and 800 μg/mL, with the remaining procedures following those in section 2.6.2. The number of dead insects was recorded after 72 hours. The experimental data was processed using Microsoft Excel and SPSS 20.0 software, converting the inhibition rates into corresponding probability values to obtain the toxicity regression equation and calculate the LC50 value.

AchE from S. frugiperda = AchE from S. frugiperda (Spodoptera frugiperda, UniProt A0A9R0CUI4); assay: Kinetic study of compound inhibition on AchE; format: biochemical; conditions: for Inhibition type on AchE: Lineweaver-Burk double reciprocal plots; for Reversibility of AchE inhibition: reaction rate vs enzyme concentration
Chain of AchE from S. frugiperda (A0A9R0CUI4 18-694): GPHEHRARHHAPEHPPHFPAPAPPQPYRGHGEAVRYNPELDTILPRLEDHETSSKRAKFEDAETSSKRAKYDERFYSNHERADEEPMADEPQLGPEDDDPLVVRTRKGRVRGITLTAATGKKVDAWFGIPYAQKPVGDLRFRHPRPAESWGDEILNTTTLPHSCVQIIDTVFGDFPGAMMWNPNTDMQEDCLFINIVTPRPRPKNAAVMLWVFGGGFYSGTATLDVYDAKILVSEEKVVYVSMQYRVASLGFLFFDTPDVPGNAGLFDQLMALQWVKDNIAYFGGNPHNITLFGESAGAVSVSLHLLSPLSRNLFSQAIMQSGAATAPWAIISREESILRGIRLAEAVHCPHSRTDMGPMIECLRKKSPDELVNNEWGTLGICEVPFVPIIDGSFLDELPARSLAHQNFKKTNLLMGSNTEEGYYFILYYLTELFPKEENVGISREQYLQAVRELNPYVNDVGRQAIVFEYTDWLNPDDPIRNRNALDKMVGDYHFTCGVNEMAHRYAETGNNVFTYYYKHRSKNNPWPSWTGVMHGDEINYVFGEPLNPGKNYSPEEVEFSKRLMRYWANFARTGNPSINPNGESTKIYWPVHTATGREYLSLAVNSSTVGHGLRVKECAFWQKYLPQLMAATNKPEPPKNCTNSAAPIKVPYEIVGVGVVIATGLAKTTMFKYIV
Protocol: Subsequently, 1.5 mM acetylcholine (ACh) (50 µL) and 0.3 mM DTNB (50 µL) were added, and the time was immediately recorded. The OD values were accurately measured after 60 seconds at 412 nm using a microplate reader, and the reaction rate (ΔA/min) was calculated based on the change in OD value per minute.
The OD values were accurately measured after 60 seconds at 412 nm using a microplate reader, and the reaction rate (ΔA/min) was calculated based on the change in OD value per minute. […] The inhibition constant (Ki) of the compound was calculated by plotting the Dixon plot.

[3] = test system: 4th instar S. frugiperda larva; assay: Dietary toxicity of compounds, artificial feed film method; format: in vivo, Spodoptera frugiperda; conditions: for Insecticidal activity, dietary poisoning (in words): 200 µg/mL; for LC50: Spodoptera frugiperda, feed or water, Gastrotoxic activity (dietary toxicity), 72 hours, 4th instar larvae
Protocol: The dietary toxicity of the compounds against S. frugiperda was determined via the artificial feed film method ([Lu, 2022]). Take 1g of artificial feed and place it in a petri dish, then add 0.1 ml of the liquid medicine (acetone as the solvent and concentration of 200 μg/mL for all compounds) was added to form a uniform film on the surface of the feed. After allowing the feed to dry in a shaded area, one uniformly sized 4th instar S. frugiperda larva was introduced into each dish. Each treatment included 10 Petri dishes, and the experiment was repeated twice. Acetone was used as the solvent control, and a blank control was also used. Mortality was recorded at 24, 48, and 72 hours, and the corrected mortality rate was calculated.
as §1
The compound concentrations used were 50, 100, 200, 400, and 800 μg/mL. The remaining procedures were the same as those described in section 2.6.1. After 72 hours, the number of dead insects was recorded. The experimental data were processed using Microsoft Excel and SPSS 20.0 software, with the inhibition rates converted into corresponding probability values. A toxicity regression equation was derived, and the LC50 value was calculated.

Row | Compound | AchE activity of the test insects [1] | Insecticidal activity, contact toxicity (in words) [2] | LC50 [2] | Inhibition type on AchE (AchE from S. frugiperda) | Reversibility of AchE inhibition (AchE from S. frugiperda) | Insecticidal activity, dietary poisoning (in words) [3] | LC50 [3]
1 | O=C(/C=C/c1ccc(O)cc1)NCCc1ccc(O)cc1 [Compound 1, N-p-coumaroyl tyramine] | significantly decreased | good insecticidal activity | 93 µg/mL (≈ 328 µM) | competitive inhibitors | reversible inhibitors | good insecticidal activity | 305 µg/mL (≈ 1080 µM)
2 | COc1cc(/C=C/C(=O)NCCc2ccc(O)cc2)ccc1O [Compound 2, N-trans-feruloyl tyramine] | significantly decreased | good insecticidal activity | 48 µg/mL (≈ 153 µM) | competitive inhibitors | reversible inhibitors | good insecticidal activity | 89.9 µg/mL (≈ 287 µM)
